Results from patent US11261201B2 (priority 2018, dated 2022).
Values after ≈ are worked out from the molar mass of the structure shown. Structures can show the parent of a compound that is named as a salt. Where two headings read alike, the source gives them in different places.

What was measured:
[1] = tested on: H37RvMA; assay: Tuberculosis Alamar Blue/Resazurin assay (MIC); assay type: cell-based; details: read-out: WT H37Rv MTB Activity
[2] = tested on: E. coli; assay: Gram negative MIC protocol (OD600, LB, 24 h); details: for MIC: Escherichia coli
Protocol: (§1) Overnight bacterial cultures were grown in LB with no added antibiotics at 37° C. with shaking. A 1:1000 dilution of these cultures into LB was exposed to concentration gradients of compounds in 96-well plates (100 μL per well assay volume). Resulting plates were incubated at 37° C. for 24 h without shaking, and OD600 was measured at the end of the incubation. MICs were determined as the lowest concentrations at which OD600 remained at baseline.

[3] = tested on: A. baumannii; assay: Gram negative MIC protocol (OD600, LB, 24 h); details: for MIC: Acinetobacter baumannii
Protocol: as §1

[4] = Mycobacterium tuberculosis, H37RV, WT H37Rv MTB
[5] = read-out: MIC E. coli delta-TolC LB Media, E. coli delta-TolC strain, LB media, 24 h, OD600
[6] = read-out: MIC WT E. coli LB Media, wild-type E. coli, LB media, 24 h, OD600
[7] = read-out: MIC A. baumannii LB Media, A. baumannii, LB media, 24 h, OD600
[8] = read-out: MIC E. coli delta-TolC LB Media, E. coli delta-TolC, LB media, OD600
[9] = read-out: MIC WT E. coli LB Media, WT E. coli, LB media, OD600
[10] = Mycobacterium tuberculosis, H37RV
[11] = read-out: MIC A. baumannii LB Media

Structure (SMILES)	MIC [1, 4]	MIC [2, 5]	MIC [2, 6]	MIC [3, 7]	MIC [2, 8]	MIC [2, 9]	further results
CC(CC1CCCCC1)NCc1ccccc1OCc1cccc(F)c1 (stereo not drawn) [B383]	12.2 µM (≈ 4.34 µg/mL)	2 µM (≈ 0.711 µg/mL)	55 µM (≈ 19.6 µg/mL)	91 µM (≈ 32.4 µg/mL)			
c1ccc(CNCCC2CCCCC2)cc1 [B132]	> 150 µM			150 µM (≈ 32.6 µg/mL)	85 µM (≈ 18.5 µg/mL)	124 µM (≈ 27 µg/mL)	
CC1CC1C(C)NCc1ccccc1 (stereo not drawn) [B69]	> 150 µM			> 150 µM	> 150 µM	> 150 µM	
CC(NCc1ccccc1)C1CCCC1 (stereo not drawn) [B35]	> 150 µM			> 150 µM	> 150 µM	> 150 µM	
CCN1CC(COc2ccccc2CNCCC2=CCCCC2)OC1=O (stereo not drawn) [B368]	> 150 µM	20 µM (≈ 7.17 µg/mL)	> 150 µM	> 150 µM			
CCc1cnc(COc2ccccc2CNC(C)CC2CCCCC2)o1 (stereo not drawn) [B268]	91 µM (≈ 32.4 µg/mL)	7 µM (≈ 2.5 µg/mL)	> 150 µM	> 150 µM			
CC1(CNCc2ccccc2)CCCCCC1 [B100]	> 150 µM			> 150 µM	> 150 µM	> 150 µM	
Cc1ccc(COc2ccccc2CNC(C)CC2CCCCC2)cc1 (stereo not drawn) [B460, 1-cyclohexyl-N-(2-((4-methylbenzyl)oxy)benzyl)propan-2-amine]	10 µM (≈ 3.52 µg/mL)			33 µM (≈ 11.6 µg/mL)	< 1 µM	33 µM (≈ 11.6 µg/mL)	
FC1(F)CCC(CCNCc2ccccc2)CC1 [B212, N-benzyl-2-(4,4-difluorocyclohexyl)ethanamine hydrochloride]	> 150 µM	> 300 µM	> 300 µM	> 300 µM			
COc1ccc2c(c1)CCCC2CNCc1ccccc1 (stereo not drawn) [B112]	> 150 µM			> 150 µM	> 150 µM	> 150 µM	
c1ccc(CNCCN2CCC3(CCCCC3)CC2)cc1 [B121]	> 150 µM			> 150 µM	> 150 µM	> 150 µM	
COC(=O)CCc1ccccc1CNC(C)CC1CCCCC1 (stereo not drawn) [B400, methyl 3-(2-((1-cyclohexylpropan-2-ylamino)methyl)phenyl)propanoate hydrochloride]	> 150 µM			> 150 µM	55 µM	> 150 µM	
CC(CC1CCCCC1)NCc1ccccc1OCCCOCC(F)(F)F (stereo not drawn) [B304]	91 µM (≈ 35.3 µg/mL)	3 µM (≈ 1.16 µg/mL)	> 150 µM	> 150 µM			
c1ccc(Oc2ccccc2CNCCC2CCCCC2)cc1 [B232, 2-cyclohexyl-N-(2-phenoxybenzyl)ethanamine hydrochloride]	91 µM	17 µM	170 µM	96 µM			
Cl.c1ccc(CNCC2CCCCC2)cc1 [B17]							MIC ([1]; WT H37Rv MTB): >150 µM; MIC E. coli delta-TolC LB Media ([2]; E. coli delta-TolC, LB media, OD600): >150 µM; MIC WT E. coli LB Media ([2]; WT E. coli, LB media, OD600): >150 µM; MIC A. baumannii LB Media ([3]; A. baumannii, LB media, OD600): >150 µM
Cc1nnc(COc2ccccc2CNC(C)CC2CCCCC2)o1 (stereo not drawn) [B279]	> 150 µM	12 µM (≈ 4.12 µg/mL)	> 150 µM	> 150 µM			
OC1(CCNCc2ccccc2)CCCCC1Cl (stereo not drawn) [B188]	> 150 µM			> 300 µM	> 300 µM	> 300 µM	
C[C@H](CC1=CCCCC1)NCc1ccccc1 [B170]					> 300 µM	> 300 µM	MIC [1, 10]: > 150 µM; MIC [3, 11]: > 300 µM
C[Si](C)(C)c1ccccc1CNCCC1CCCCC1 [B341, 2-cyclohexyl-N-(2-(trimethylsilyl)-benzyl)ethanamine hydrochloride]		7 µM	> 150 µM				MIC [1, 10]: 150 µM; MIC [3, 11]: > 150 µM
c1ccc(CNCCC2CC3CCC2O3)cc1 (stereo not drawn) [B66]	> 150 µM			> 150 µM	> 150 µM	> 150 µM	
CC(CC1CCOCC1)NCc1ccccc1 (stereo not drawn) [B29]	> 150 µM			> 150 µM	> 150 µM	> 150 µM	
CC(CC1CCCCC1)NCc1ccccc1OCC(=O)NC(C)C(=O)N(C)C (stereo not drawn) [B270]	> 150 µM	20 µM (≈ 8.07 µg/mL)	> 150 µM	> 150 µM			
C1=C(CCNCc2cccnc2)CCCC1 [B4]				> 150 µM	> 150 µM	> 150 µM	MIC [1, 10]: > 150 µM
CCc1ccccc1CNCCC1CCCCC1 [B228, 2-cyclohexyl-N-(2-ethylbenzyl)ethanamine hydrochloride]	91 µM	20 µM	170 µM	300 µM			
c1ccc(CNCCC2CCCC2)cc1 [B128]	> 150 µM			> 150 µM	> 150 µM	> 150 µM	
CC(C)NC(=O)COc1ccccc1CNC(C)CC1CCCCC1 (stereo not drawn) [B358]	> 150 µM	20 µM (≈ 6.93 µg/mL)	> 150 µM	> 150 µM			

Structure (SMILES)	MIC [1, 4]	MIC [2, 5]	MIC [2, 6]	MIC [3, 7]	MIC [2, 8]	MIC [2, 9]	further results
c1ccc(-c2ccccc2CNCCC2CCCCC2)cc1 [B229, N-(biphenyl-2-ylmethyl)-2-cyclohexylethanamine hydrochloride]	33 µM	7 µM	170 µM	96 µM			
CC(C)(Cc1ccc(C(F)(F)F)cc1)NCc1ccccc1 [B93]					> 150 µM	> 150 µM	MIC [1, 10]: > 150 µM; MIC [3, 11]: > 150 µM
C[C@H](NCc1ccccc1)C1CCCc2ccccc21 (stereo partly drawn) [B113]	> 150 µM			> 150 µM	> 150 µM	> 150 µM	
c1ccc(CNC[C@@H]2C[C@H]2c2ccccc2)cc1 [B61]	> 150 µM			> 150 µM	> 150 µM	> 150 µM	
c1ccc(CNC2Cc3ccccc3C2)cc1 [B206, N-benzyl-2,3-dihydro-1H-inden-2-amine hydrochloride]	> 150 µM	> 300 µM	> 300 µM	> 300 µM			
c1ccc(CNC(CC2CCCCC2)c2ccccc2)cc1 (stereo not drawn) [B169, N-benzyl-2-cyclohexyl-1-phenylethanamine hydrochloride]	> 150 µM			> 300 µM	74 µM	> 300 µM	
COc1cc2c(cc1OC)CN(CCNCc1ccccc1)CC2 [B147]	> 150 µM			> 150 µM	> 150 µM	> 150 µM	
Nc1cccc(CNCCC2CCCCC2)c1 [B366]	> 150 µM	150 µM (≈ 34.9 µg/mL)	150 µM (≈ 34.9 µg/mL)	> 150 µM			
OCC(CC1CCCCC1)NCc1ccccc1 (stereo not drawn) [B168, 2-(benzylamino)-3-cyclohexylpropan-1-ol]					182 µM (≈ 45 µg/mL)	170 µM (≈ 42.1 µg/mL)	MIC [1, 10]: > 150 µM; MIC [3, 11]: 410 µM (≈ 101 µg/mL)
C[C@H](CC1CCCCC1)NCc1ccccc1 [B95]					> 150 µM	> 150 µM	MIC [1, 10]: 55 µM (≈ 12.7 µg/mL); MIC [3, 11]: > 150 µM
NS(=O)(=O)Cc1ccccc1CNCCC1CCCCC1 [B380]	> 150 µM	12 µM (≈ 3.73 µg/mL)	33 µM (≈ 10.2 µg/mL)	> 150 µM			
FC(F)(F)c1ccc(CC2(NCc3ccccc3)CC2)cc1 [B96]				> 150 µM	90 µM (≈ 27.5 µg/mL)	> 150 µM	MIC [1, 10]: > 150 µM
CCCNC(=O)COc1ccccc1CNC(C)CC1CCCCC1 (stereo not drawn) [B242]	> 150 µM	12 µM (≈ 4.16 µg/mL)	> 150 µM	> 150 µM			
CC(CC1CCCCC1)NCc1ccccc1OCCCO (stereo not drawn) [B251]	> 150 µM	7 µM (≈ 2.14 µg/mL)	91 µM (≈ 27.8 µg/mL)	91 µM (≈ 27.8 µg/mL)			
CC(CC1CCCCC1)NCc1ccccc1NC(=O)c1ccccc1F (stereo not drawn) [B398, N-(2-(((1-cyclohexylpropan-2-yl)amino)methyl)phenyl)-2-fluorobenzamide hydrochloride]	150 µM			> 150 µM	91 µM	> 150 µM	
CC(CC1CCCCC1)NCc1ccccc1OCc1ccccc1F (stereo not drawn) [B286]	33 µM (≈ 11.7 µg/mL)	3 µM (≈ 1.07 µg/mL)	91 µM (≈ 32.4 µg/mL)	91 µM (≈ 32.4 µg/mL)			
COC(=O)Cc1cccc(CNCCC2CCCCC2)c1 [B440, methyl 2-(3-(((2-cyclohexylethyl)amino)methyl)phenyl)acetate]	150 µM (≈ 43.4 µg/mL)			> 150 µM	> 150 µM	> 150 µM	
CC(CC1CCCCC1)NCc1ccccc1OCCCN(C)C1CCCC1 (stereo not drawn) [B344]	150 µM (≈ 58 µg/mL)	91 µM (≈ 35.2 µg/mL)	150 µM (≈ 58 µg/mL)	91 µM (≈ 35.2 µg/mL)			
CC1(c2ccc(F)cc2)N(Cc2ccccc2)C12CC2 (stereo not drawn) [B98]				> 150 µM			MIC [1, 10]: > 150 µM; MIC ([2]; read-out: MIC E. coli delta-TolC LB Media): 150 µM (≈ 40.1 µg/mL); MIC ([2]; read-out: MIC WT E. coli LB Media): > 150 µM
O=C1Cc2ccccc2CN1CCc1ccccc1 [B421, 2-phenethyl-1,4-dihydroisoquinolin-3(2H)-one]	55.1 µM (≈ 13.8 µg/mL)			> 150 µM	> 150 µM	> 150 µM	
COCC(C)NC(=O)NC(=O)COc1ccccc1CNC(C)CC1CCCCC1 (stereo not drawn) [B308]	> 150 µM	4 µM (≈ 1.68 µg/mL)	> 150 µM	150 µM (≈ 62.9 µg/mL)			
CN1CC2CCC1C(CNCc1ccccc1)C2 (stereo not drawn) [B116]				> 150 µM	> 150 µM	> 150 µM	MIC [1, 10]: > 150 µM
CCC(CNCc1ccccc1)N1CCc2ccccc2C1 (stereo not drawn) [B131]	> 150 µM			> 150 µM	> 150 µM	> 150 µM	
c1ccc(CNCCc2ccc3[nH]ncc3c2)cc1 [B115]	> 150 µM			> 150 µM	> 150 µM	> 150 µM	
CC(CC1CCCCC1)NCc1ccccc1Oc1ccccc1F (stereo not drawn) [B405, 1-cyclohexyl-N-(2-(2-fluorophenoxy)benzyl)propan-2-amine]	33.4 µM (≈ 11.4 µg/mL)			150 µM (≈ 51.2 µg/mL)	5 µM (≈ 1.71 µg/mL)	91 µM (≈ 31.1 µg/mL)	
